Measurements taken from article PMC8868331, “Hydroxamic Acid as a Potent Metal-Binding Group for Inhibiting Tyrosinase” (Antioxidants, 2022).
Like-named read-outs stand apart in the source and are kept apart here. Each block holds one molecule with its values, some of them ahead of it.

Legend:
[1] = target: mushroom tyrosinase (Agaricus bisporus, UniProt C7FF04); experiment: Differential scanning fluorimetry (DSF) with SYPRO Orange; type: binding; conditions: 500 μM inhibitor; for Tm: mean ± SD of three experiments, DMSO control 49.16
Experimental: Differential scanning fluorimetry—Differential scanning fluorimetry (DSF) was used to characterize the direct binding of inhibitors to tyrosinase. In the absence and presence of 500 μM inhibitor, SYPRO® Orange was added to the enzyme solution. […] Time- and temperature-dependent signals were observed using the RT-PCR CFX96 system from BioRad (Hercules, CA, USA). The following equation was nonlinearly minimized to determine the mid-point melting temperature (Tm). I(T)=LL+UL−LL/[1+exp(Tm−T/a)] where UL and LL indicate the top and baseline of the curves, respectively, and a indicates the steepness of the slope.
We used differential scanning fluorimetry (DSF) to verify whether active small molecules identified by biochemical assays bound to tyrosinase directly. DSF was used to evaluate the fluorescence profiles of the dye SYPRO® Orange in a mixture with the protein upon elevating the temperature. The alteration in the unfolding process in the presence of a direct binder can shift the DSF pattern.

[2] = target: tyrosinase (Agaricus bisporus, UniProt C7FF04); experiment: Enzyme-inhibitory kinetics (Michaelis-Menten fitting with inhibition models); type: biochemical, mushroom; conditions: for Kinetics model (mode of inhibition): model chosen by F-test on reduced χ2
Experimental: Enzyme-inhibitory kinetics—Upon varying the substrate and inhibitor concentrations, the rates of product generation were measured. Simultaneous nonlinear fitting of all the profiles in an inhibitor was performed by minimizing the ꭓ^2-value, the sum of the squared differences in theoretical and experimental values, in the Michaelis–Menten equations assuming competitive, uncompetitive, noncompetitive, and mixed models. […] Reduced ꭓ^2-values, ꭓ^2-values divided by the difference in the numbers of input data and fitting parameters, were compared between the models based on the F-test to identify the most appropriate model.
The inhibitory kinetic experiments provide information for understanding the inhibition by small molecules. The rates of product generation were measured for a series of paired substrate and inhibitor concentrations. Subsequent nonlinear fitting using the Michaelis−Menten equations extended with inhibitory models and constants produced the inhibition mode and the binding constant.
Figure 4F lists the parameters for inhibition. […] However, one should be careful not to overinterpret the simulated modes and Ki values. The modes were chosen using the F-test, comparing reduced χ^2-values from each model.

[3] = target: mushroom tyrosinase from Agaricus bisporus (Agaricus bisporus, UniProt C7FF04); experiment: Enzyme-activity assay with mushroom tyrosinase, L-DOPA substrate, dopachrome absorbance at 475 nm; type: biochemical
[4] = target: tyrosinase; conditions: cited from earlier work; for IC50: ChEMBL-registered tyrosinase inhibitor
[5] = test system: carbonic anhydrase; parameters: method as in PMID 22836518; conditions: cited from earlier work
[6] = test system: mandelate racemase; parameters: method as in PMID 17055725; conditions: cited from earlier work
[7] = target: T1, mammalian tyrosinase in B16F10 cell lysates (Mus musculus, UniProt P11344); experiment: Cell-lysate-based tyrosinase activity assay; type: biochemical, murine; conditions: 50 μM, relative to untreated control
T1 construct: The cell extracts having tyrosinase activity were prepared; host or cells: B16F10 murine melanoma cells, stimulated with 3-isobutyl-1-methylxanthine, lysate
T1 sequence (P11344 19-533): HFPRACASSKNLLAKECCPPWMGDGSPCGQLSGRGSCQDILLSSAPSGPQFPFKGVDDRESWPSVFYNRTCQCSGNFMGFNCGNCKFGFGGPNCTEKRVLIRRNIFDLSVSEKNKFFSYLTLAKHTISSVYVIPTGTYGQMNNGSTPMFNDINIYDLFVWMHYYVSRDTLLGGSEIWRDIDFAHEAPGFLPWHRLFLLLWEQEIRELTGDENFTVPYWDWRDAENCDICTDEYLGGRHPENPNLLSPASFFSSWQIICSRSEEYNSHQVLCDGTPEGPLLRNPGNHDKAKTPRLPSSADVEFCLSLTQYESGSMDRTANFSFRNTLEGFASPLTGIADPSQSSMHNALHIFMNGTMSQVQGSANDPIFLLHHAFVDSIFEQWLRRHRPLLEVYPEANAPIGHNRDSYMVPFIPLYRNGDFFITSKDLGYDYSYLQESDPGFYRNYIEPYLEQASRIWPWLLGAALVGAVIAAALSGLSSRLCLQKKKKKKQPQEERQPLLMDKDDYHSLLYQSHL
Experimental: Cell-lysate-based activity assays with inhibitors—Cell-lysate-based assays were performed using B16F10 murine melanoma cells obtained from the Korean Cell Line Bank (Seoul, Korea). The B16F10 cells were grown to a density of 1 × 10^5 cells in Dulbecco’s modified Eagle’s medium supplemented with 10% fetal bovine serum and 1% penicillin−streptomycin at 37 °C under 5% CO2. The cells were incubated for 48 h after the addition of 100 μM 3-isobutyl-1-methylxanthine. The cell extracts having tyrosinase activity were prepared.
The melanin quantification assay and the cell-lysate-based activity assay were used for confirming the inhibition of mammalian tyrosinases. Unfortunately, quantifying melanin content using hydroxamate-containing molecules is not feasible because anticancer agents affect cell viability. Therefore, we evaluated tyrosinase activities using B16F10 cell lysates in a small-molecule-concentration-dependent manner.

[8] = test system: indoleamine 2,3-dioxygenase; parameters: method as in PMID 26717206; conditions: cited from earlier work
[9] = test system: arachidonate 5-lipoxygenase; parameters: method as in PMID 3820229; conditions: cited from earlier work
[10] = mushroom tyrosinase, concentration-dependent profile (Figure 2)
[11] = shift toward lower temperature against DMSO

Sequence of mushroom tyrosinase from Agaricus bisporus (C7FF04 1-392): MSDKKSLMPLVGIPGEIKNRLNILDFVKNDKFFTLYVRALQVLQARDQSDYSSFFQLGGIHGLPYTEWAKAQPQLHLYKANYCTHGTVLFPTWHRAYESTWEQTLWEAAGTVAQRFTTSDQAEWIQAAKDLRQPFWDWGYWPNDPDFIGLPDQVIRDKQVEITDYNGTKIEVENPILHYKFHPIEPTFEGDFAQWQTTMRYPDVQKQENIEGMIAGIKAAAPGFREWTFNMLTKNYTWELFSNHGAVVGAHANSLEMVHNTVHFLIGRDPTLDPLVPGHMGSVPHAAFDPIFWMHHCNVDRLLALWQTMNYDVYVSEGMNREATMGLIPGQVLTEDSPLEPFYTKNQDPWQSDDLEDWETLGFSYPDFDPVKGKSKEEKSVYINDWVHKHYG
Sequence of mushroom tyrosinase (C7FF04 1-392 limits assumed): as the sequence (C7FF04 1-392) above
Sequence of tyrosinase (Agaricus bisporus, UniProt C7FF04) (C7FF04 1-392): as above

Structure (SMILES): CC(/C=C/C(=O)NO)=C\[C@@H](C)C(=O)c1ccc(N(C)C)cc1 [Trichostatin A]
Tm [1]: 46.55 ± 0.07 °C | Ki ([2]; Ki for apo state (mixed model), first value, apo state): 4.5 µM | Ki ([2]; Ki for holo state (mixed model), second value, holo state): 37 µM | Kinetics model (mode of inhibition) [2]: mixed | Ki [3]: 1 ± 0.1 µM

Inhibition of tyrosinase (in words) [3, 10]: inhibited very weakly | Ki ([3]; read-out: Ki): > 500 µM
Structure (SMILES): CCCC(CCC)C(=O)O [Valproic acid]

Structure (SMILES): CC(=O)NO [Acetohydroxamic acid]
Kinetics model (mode of inhibition) [2]: noncompetitive | Ki ([3]; inhibitory constant converted from IC50 (Cheng-Prusoff), 5 nM enzyme, 500 μM L-DOPA, ± is SD from Monte-Carlo simulation, read-out: Ki): 38 ± 8 µM

Tm [1]: 46.72 ± 0.06 °C | ΔTm ([1]; shift toward lower temperature): 2.44 degrees | ΔTm [1, 11]: 2.44 ° | Kinetics model (mode of inhibition) [2]: competitive | Ki ([2]; simultaneous nonlinear fit, read-out: Ki (simulated inhibitory constant from kinetics fit)): 0.29 µM | Ki values as worded in the text (words or range with mixed units) ([3]; mushroom tyrosinase): submicromolar range | Ki ([3]; read-out: Ki): 0.04 ± 0.005 µM
Structure (SMILES): Cc1[nH]c2ccccc2c1CCNCc1ccc(/C=C/C(=O)NO)cc1 [Panobinostat]

Structure (SMILES): CC(=O)NO [N-Hydroxyacetamide]
Ki ([3]; inhibitory constant converted from IC50 (Cheng-Prusoff), 5 nM enzyme, 500 μM L-DOPA, read-out: Ki): > 1000 µM | Inhibition of tyrosinase (in words) [3, 10]: scarcely inhibited

Structure (SMILES): Oc1ccc(-c2nc3ccccc3s2)c(O)c1 [CHEMBL1408767]
IC50 ([4]; ref 61 (supplement ref 7)): 0.01 µM

Ki ([3]; read-out: Ki): 32 ± 5 µM
Structure (SMILES): CCCC(=O)NO [Butyrylhydroxamic acid]

Tm [1]: 47.15 ± 0.07 °C | ΔTm ([1]; shift toward lower temperature): 2.01 degrees | ΔTm [1, 11]: 2.01 ° | Ki [2]: 0.128 µM | Kinetics model (mode of inhibition) [2]: noncompetitive | Ki [3]: 0.007 ± 0.001 µM | Decrease of tyrosinase activity [7]: approximately 97%
Structure (SMILES): O=C(NO)c1ccccc1 [Benzohydroxamic acid]
Inhibition of carbonic anhydrase (in words) [5]: μM range | Inhibition of mandelate racemase (in words) [6]: μM range | Inhibition of indoleamine 2,3-dioxygenase (in words) [8]: μM range | Inhibition of arachidonate 5-lipoxygenase (in words) [9]: μM range

Tm [1]: 47.31 ± 0.07 °C | ΔTm ([1]; shift toward lower temperature): 1.85 degrees | ΔTm [1, 11]: 1.85 ° | Kinetics model (mode of inhibition) [2]: competitive | Ki [3]: 0.18 ± 0.021 µM
Structure (SMILES): O=C(CCCCCN1C(=O)c2cccc3cccc(c23)C1=O)NO [Scriptaid]

Structure (SMILES): CCN(CC)C(=O)/C=C/c1ccc(O)cc1O [CHEMBL4463984]
IC50 ([4]; ref 62 (supplement ref 8)): 0.011 µM

Structure (SMILES): O=c1cccccc1O [Tropolone]
Ki ([3]; read-out: Ki): 0.043 ± 0.003 µM

Structure (SMILES): NCC(=O)NO [Glycine hydroxamate]
Inhibition of tyrosinase (in words) [4]: comparable inhibitory activity to arbutin

Structure (SMILES): O=C(CCCCCCC(=O)NO)NO [Suberohydroxamic acid]
Ki ([3]; read-out: Ki): 1 ± 0.2 µM

Structure (SMILES): C/C=C1\NC(=O)[C@H]2CSSCC/C=C/[C@H](CC(=O)N[C@H](C(C)C)C(=O)N2)OC(=O)[C@H](C(C)C)NC1=O [Romidepsin]
Inhibition of tyrosinase (in words) [3]: inhibited very weakly | Ki [3]: > 500 µM
